Assay results taken from ChEMBL document CHEMBL5518209, “Caltrop-like Small-Molecule Antidotes That Neutralize Unfractionated Heparin and Low-Molecular-Weight Heparin In Vivo” (J Med Chem, 2024).
Calls of active or inactive are those of the source. The calls are words filed in the database; no cut-off is given here.

Tests used:
Homo sapiens [1] = organism: Homo sapiens; test: Reversal of anticoagulation of unfractionated heparin in human whole blood assessed as restoration of normal clotting strength at 2 to 20 ug/ml incubated for 5 mins by thromboelastography; type: tissue-based; settings: dose 2-20 µg/ml
Mus musculus [2] = test: In vivo antagonism of dalteparin sodium induced anticoagulation in ICR mouse assessed as bleeding time at 0.4 mg/kg, iv administered via tail vein pretreated with heparin for 5 mins followed by compound addition and measured after 5 mins (reference value: 96.5 +/- 20.6 min); type: functional
Homo sapiens [3] = organism: Homo sapiens; test: Reversal of anticoagulation of enoxaparin sodium in human whole blood assessed as restoration of normal clotting time at 5 to 20 ug/ml incubated for 5 mins by thromboelastography; type: tissue-based; settings: dose 5-20 µg/ml
Bos taurus [4] = organism: Bos taurus; test: Neutralization of enoxaparin sodium in bovine plasma at 10 to 60 ug/ml by aPTT assay; type: cell-free; settings: dose 10-60 µg/ml
Homo sapiens [5] = organism: Homo sapiens; test: Neutralization of unfractionated heparin in human poor platelet plasma at 10 to 50 ug/ml by aPTT assay relative to control; type: cell-free; settings: dose 10-50 µg/ml
[6] = Binding affinity to nadroparin calcium in saline at pH 7.4 assessed as increase in fluorescence by measuring inflection point by fluorescence titration method
Homo sapiens [7] = organism: Homo sapiens; test: Reversal of anticoagulation of […] in human whole blood assessed as restoration of normal clotting strength at 2 to 20 ug/ml incubated for 5 mins by thromboelastography; type: tissue-based; settings: dose 2-20 µg/ml
Mus musculus [8] = test: In vivo antagonism of dalteparin sodium induced anticoagulation in ICR mouse assessed as blood loss at 0.4 mg/kg, iv administered via tail vein pretreated with heparin for 5 mins followed by compound addition and measured after 5 mins (reference value: 324.4 +/- 139.5 microL); type: functional
Blood [9] = test: Blood compatibility in human whole blood assessed as effect on clotting strength at 0 to 20 ug/ml measured upto 50 mins by thromboelastography; type: toxicity, tissue-based; settings: dose 0-20 µg/ml
[10] = Binding affinity to enoxaparin sodium in saline at pH 7.4 assessed as change in enthalpy by ITC analysis
Homo sapiens [11] = organism: Homo sapiens; test: Reversal of anticoagulation of dalteparin sodium in human whole blood assessed as minimum effective dose incubated for 5 mins by thromboelastography; type: tissue-based
[12] = Toxicity in ICR mouse assessed as histopathological changes in lungs at 25 mg/kg, iv administered as single dose through tail vein and measured after 14 days by H and E staining based analysis; type: organism-based, Lung; settings: in vivo, 336 h, time 14 day
Rattus norvegicus [13] = test: In vivo antagonism of enoxaparin sodium induced anticoagulation in Sprague-Dawley rat assessed as restoration of normal clotting rate at 1 mg/kg, iv administered via tail vein pretreated with enoxaparin sodium for 5 mins followed by compound addition and measured after 2.5 mins by thromboelastography; type: functional, organism-based
Homo sapiens [14] = organism: Homo sapiens; test: Reversal of anticoagulation of dalteparin sodium in human whole blood assessed as restoration of normal clotting strength at 2 to 20 ug/ml incubated for 5 mins by thromboelastography; type: tissue-based; settings: dose 2-20 µg/ml
Homo sapiens [15] = organism: Homo sapiens; test: Reversal of anticoagulation of enoxaparin sodium in human whole blood assessed as restoration of normal clotting strength at 2 to 20 ug/ml incubated for 5 mins by thromboelastography; type: tissue-based; settings: dose 2-20 µg/ml
Blood [16] = test: Ex vivo neutralization of enoxaparin sodium in Sprague-Dawley rat whole blood assessed as restoration of blood coagulation at 10 to 15 ug/ml incubated for 15 mins; type: functional, tissue-based; settings: dose 10-15 µg/ml
[17] = Cytotoxicity against human MCF7 cells assessed as cell viability at 300 ug/ml incubated for 24 hrs by CCK-8 assay relative to control; type: toxicity, cell-based; settings: at 300 µg/mL, read-out: Activity
Homo sapiens [18] = organism: Homo sapiens; test: Reversal of anticoagulation of nadroparin calcium in human whole blood assessed as restoration of normal coagulation rate at 5 to 20 ug/ml incubated for 5 mins by thromboelastography; type: tissue-based; settings: dose 5-20 µg/ml
[19] = Binding affinity to unfractionated heparin in saline at pH 7.4 assessed as change in enthalpy by ITC analysis
Homo sapiens [20] = organism: Homo sapiens; test: Reversal of anticoagulation of unfractionated heparin in human whole blood assessed as minimum effective dose incubated for 5 mins by thromboelastography; type: tissue-based
[21] = Binding affinity to nadroparin calcium in saline at pH 7.4 assessed as change in enthalpy by ITC analysis
[22] = Induction of blood loss in ICR mouse at 0.4 mg/kg, iv treated for 5 mins; type: toxicity, organism-based; settings: in vivo
Blood [23] = test: Ex vivo neutralization of dalteparin sodium in Sprague-Dawley rat whole blood assessed as restoration of blood coagulation at 10 to 15 ug/ml incubated for 15 mins; type: functional, tissue-based; settings: dose 10-15 µg/ml
Homo sapiens [24] = organism: Homo sapiens; test: Reversal of anticoagulation of nadroparin calcium in human whole blood assessed as minimum effective dose incubated for 5 mins by thromboelastography; type: tissue-based
[25] = Blood compatibility in bovine plasma assessed as activated partial thromboplastin time at <45 ug/ml by turbidimetry method; type: toxicity, cell-free, Bos taurus; settings: cattle, dose < 45 µg/ml
[26] = Binding affinity to dalteparin sodium in saline at pH 7.4 assessed as change in entropy by ITC analysis
[27] = Binding affinity to dalteparin sodium in saline at pH 7.4 assessed as increase in fluorescence by measuring inflection point by fluorescence titration method
[28] = Toxicity in ICR mouse assessed as histopathological changes in heart at 25 mg/kg, iv administered as single dose through tail vein and measured after 14 days by H and E staining based analysis; type: organism-based; settings: in vivo, 336 h, time 14 day
Homo sapiens [29] = organism: Homo sapiens; test: Reversal of anticoagulation of unfractionated heparin in human whole blood assessed as restoration of normal coagulation rate at 5 to 20 ug/ml incubated for 5 mins by thromboelastography; type: tissue-based; settings: dose 5-20 µg/ml
Rattus norvegicus [30] = test: In vivo antagonism of enoxaparin sodium induced anticoagulation in Sprague-Dawley rat assessed as clotting time at 0.4 mg/kg, iv administered via tail vein pretreated with enoxaparin sodium for 5 mins followed by compound addition and measured after 2.5 mins by thromboelastography; type: functional
Bos taurus [31] = organism: Bos taurus; test: Neutralization of unfractionated heparin in bovine plasma at 10 to 60 ug/ml by aPTT assay; type: cell-free; settings: dose 10-60 µg/ml
Bos taurus [32] = organism: Bos taurus; test: Neutralization of nadroparin calcium in bovine plasma at 10 to 60 ug/ml by aPTT assay; type: cell-free; settings: dose 10-60 µg/ml
[33] = Binding affinity to enoxaparin sodium in saline at pH 7.4 assessed as change in gibbs free energy by ITC analysis
[34] = Toxicity in Sprague-Dawley rat assessed as change in urine indexes at 0.4 mg/kg, iv measured after 5 hrs; type: organism-based; settings: in vivo
[35] = Binding affinity to enoxaparin sodium in saline at pH 7.4 assessed as increase in fluorescence by measuring inflection point by fluorescence titration method
Bos taurus [36] = organism: Bos taurus; test: Neutralization of dalteparin sodium in bovine plasma at 10 to 60 ug/ml by aPTT assay; type: cell-free; settings: dose 10-60 µg/ml

NCCOc1ccc(-c2cc[n+](Cc3ccc(C(c4ccc(C[n+]5ccc(-c6ccc(OCCN)c(OCCN)c6)cc5)cc4)(c4ccc(C[n+]5ccc(-c6ccc(OCCN)c(OCCN)c6)cc5)cc4)c4ccc(C[n+]5ccc(-c6ccc(OCCN)c(OCCN)c6)cc5)cc4)cc3)cc2)cc1OCCN.[Cl-].[Cl-].[Cl-].[Cl-]
Activity (Homo sapiens [1]): Active
Time (Mus musculus [2]): 20.9 min
Activity (Homo sapiens [3]): Active
Activity (Bos taurus [4]): Active
Activity (Homo sapiens [5]): 100%
IP [6]: 3
Activity (Homo sapiens [7]): Active
Activity (Mus musculus [8]): 26 µL
Activity (Blood [9]): Toxic
deltaH [10]: -7.86 kcal/mol
MED (Homo sapiens [11]): 4 µg/mL
Activity [12]: Non-Toxic
Activity (Rattus norvegicus [13]): Active
Activity (Homo sapiens [14]): Active
Activity (Homo sapiens [15]): Active
Activity (Blood [16]): Active
viability at 24 h, 300 ug/ml [17]: > 80%
Activity (Homo sapiens [18]): Active
deltaH [19]: -5.86 kcal/mol
MED (Homo sapiens [20]): 4 µg/mL
deltaH [21]: -6.53 kcal/mol
Activity [22]: Non-Toxic
Activity (Blood [23]): Active
MED (Homo sapiens [24]): 4 µg/mL
APTT [25]: 23 s
-TdeltaS [26]: -5.41 kcal/mol
IP [27]: 2.6
Activity [28]: Non-Toxic
Activity (Homo sapiens [29]): Active
Time (Rattus norvegicus [30]): 3.63 min
Activity (Bos taurus [31]): Active
Activity (Bos taurus [32]): Active
deltaG [33]: -9.91 kcal/mol
Activity [34]: Non-Toxic
IP [35]: 2.2
Activity (Bos taurus [36]): Active
